Data published in a compilation of properties of binary mixtures (doi:10.1039/c5cp04050g).

Test: xn = mol fraction of the nth substance listed
Settings: 100 kPa

## CCCC[n+]1ccn(C)c1.[Cl-] + NCCO
293 K, x2 = 0.8
  viscosity: 36.2 mPa·s
298 K, x2 = 0
  viscosity: 19 mPa·s
298 K, x2 = 0.5
  viscosity: 134 mPa·s
298 K, x2 = 0.677
  viscosity: 47.4 mPa·s
298 K, x2 = 0.8
  viscosity: 28.1 mPa·s
303 K, x2 = 0.8
  viscosity: 22.4 mPa·s
303.1 K, x2 = 0
  viscosity: 15.2 mPa·s
313.1 K, x2 = 0
  viscosity: 9.93 mPa·s
313.1 K, x2 = 0.8
  viscosity: 14.9 mPa·s
323.1 K, x2 = 0
  viscosity: 6.88 mPa·s
323.1 K, x2 = 0.5
  viscosity: 36.7 mPa·s
323.1 K, x2 = 0.677
  viscosity: 16.6 mPa·s
323.1 K, x2 = 0.8
  viscosity: 10.5 mPa·s
333.1 K, x2 = 0.8
  viscosity: 7.41 mPa·s
333.2 K, x2 = 0
  viscosity: 5.03 mPa·s
333.2 K, x2 = 0.677
  viscosity: 12 mPa·s
343.2 K, x2 = 0
  viscosity: 3.69 mPa·s
343.2 K, x2 = 0.5
  viscosity: 17.9 mPa·s
343.2 K, x2 = 0.677
  viscosity: 9.1 mPa·s
343.2 K, x2 = 0.8
  viscosity: 5.58 mPa·s
